{"source": "patent US20140163082A1", "about": "“PYRAZOLYL COMPOUNDS FOR USE IN REVERSING REACTIVE GLIOSIS” (priority 2011, published 2014)", "key": {"[1]": {"tested_on": "preretinal NV in OIR mouse model", "test": "Quantification of preretinal NV (H&E sections), OIR mouse model", "type": "in vivo, C57BL/6J mice", "settings": "OIR mice, double intravitreal injection YC-1 100 μM, P17, n=8; DMSO 61", "procedure": "Retinal NV was induced in newborn mice as described previously. Briefly, P7 mice were exposed with their nursing mother, for 5 days [between P7 and P12] to hyperoxic conditions, by incubating them in an airtight chamber [PROOX 110 chamber O2 controller; Biospherix Ltd., Redfield, N.Y.] ventilated by a mixture of O2 and air to a final oxygen fraction of 75±2%. These incubation conditions induced vaso-obliteration and subsequent cessation of vascular development in the capillary beds of the central retina. At P12, the mice were allowed to recover in normal room air conditions and maintained for another 5 days [till P17], the day in which peak disease occurs. A condition of relative hypoxia resulted between P12 and P17, and extensive retinal NV developed in 100% of the mice. […]\nQuantification of preretinal NV on P17 mice was performed as previously described. Briefly, 6-μm-thick serial sections were stained with hematoxylin and Eosin (H&E), then examined and scored in masked fashion for the presence of all nuclei extending beyond the ILM into the vitreous from the retina, by using light microscopy (Zeiss Axiovert 135, Thornwood, N.Y.). Efficacy of treatment was calculated as the percentage of the average number of nuclei/section in the eyes of YC-1-treated mice vs. DMSO-treated retinas. A minimum of 10 sections at least 40 μm apart were evaluated and counted per eye and then averaged. […]"}, "[2]": {"tested_on": "hRMVECs cocultured with rMC-1 cells", "test": "Cell migration in a co-culture system model (transwell)", "type": "cell-based, human", "settings": "rMC-1 cells treated with YC-1 100 μM, normoxic and hypoxic conditions", "procedure": "Migration assay of hRMVECs was carried out using the transwell insert with […] pore size. The inserts were coated with Extracellular matrix [ECM] [Millipore, Billerica, Mass.] and airdry up. Chemotaxis was induced by the control r-MClcells or the r-MC1 cells that were treated with YC-1 [100 μM], which were situated in the lower compartment. hRMVECs suspension [final concentration, 5×10^4 cells/well] was added to the upper compartment [FIG. 7B]. After incubated for 24 hours, the filters were washed and then fixed and stained with crystal violet [0.5% crystal violet and 20% methanol] for 30 min at room temperature. The filters were washed with distilled water, and the cells on the upper surface of the inserts were wiped with a cotton swab. The number of cells per field that migrated to the lower surface of the filters was determined microscopically. Five randomly chosen fields were counted per filter. Data were presented as a number of migrated cells [**P<0.01]."}, "[3]": {"tested_on": "R28 cells", "test": "GFAP immunofluorescence, R28", "type": "cell-based, rat", "settings": "for GFAP protein expression (immunofluorescence): vs hypoxic controls", "procedure": "Cells were placed in airtight chambers [BioSpherix, Redfield, N.Y.] and the O2 tension was maintained at 1.2% by using Pro-Ox Model 110 O2 regulator [BioSpherix, Redfield, N.Y.]. The chamber was purged with a gas mixture of 5.32% CO2, and 93.48% N2. […] Müller cells [rMC-1] and […] cells [2×10^4 cells per well] were grown on 8-well chamber slides and cultured in 300 μl of their growing media, which contained YC-1 [25-100 μM] or DMSO [0.2% v/v] and incubated under normoxia or hypoxia for 48 hours at 37° C. YC-1 or DMSO was added 5 minutes prior to the hypoxic incubation. The cells were fixed 48 hours later with 3.7% paraformaldehyde and permeabilized with 0.2% TritonTM X-100 in PBS. The cells were incubated for two hours with anti-GFAP antibody. Negative control experiments consisted of omission of the primary antibody. Cells were then incubated with HRP-conjugate working solution, followed by the addition of the […] solution [TSA Kit#2 and #4 for rMC-1 and […] staining, respectively] at 1:100 dilutions [Molecular Probes, Carlsbad, Calif.]. Digitized images were acquired utilizing AxioVision software [Zeiss Axiovert 135 and AxioCam]. Intensity values of immunofluorescence staining of GFAP in rMC-1 and […] cells was analyzed and quantified using MetamorphTM imaging analysis software version 6.0 [Universal Imaging, Sunnyvale, Calif.]. The staining intensity in our series ranged from a weak blush to moderate or strong. The amount of cells staining with the antibody was further categorized as focal [<10%], patchy [10%-50%], and diffuse [>50%]. For semiquantitative analysis, focal and/or weak staining was considered equivocal staining, and patchy or diffuse staining was subcategorized as either moderate or strong."}, "[4]": {"tested_on": "macrophages", "settings": "macrophages stimulated by lipoteichoic acid in vitro, ref [31]; cited from earlier work"}, "[5]": {"settings": "R28, 25 μM YC-1, hypoxia 48 hours"}}}
{"compound": "OCc1ccc(-c2nn(Cc3ccccc3)c3ccccc23)o1", "note": "[YC-1, 3-(5′-hydroxymethyl-2′-furyl)-1-benzylindazole]", "values": [{"measurement": "average number of neovascular nuclei (pre-retinal, anterior to ILM)", "setting": "[1]", "result": "11±1.8"}, {"measurement": "rMC-1 cells-induced hRMVECs migration", "setting": "[2]", "result": "significantly attenuated"}, {"measurement": "GFAP cytoplasmic staining pattern/intensity (immunofluorescence)", "setting": "[3]; [5]", "result": "stronger diffuse cytoplasmic GFAP staining"}, {"measurement": "GFAP staining vs DMSO-treated hypoxic controls (immunofluorescence)", "setting": "[3]; [5]", "result": "remarkable inhibition"}, {"measurement": "GFAP protein expression (immunofluorescence)", "setting": "[3]; R28, 50 μM YC-1, hypoxia", "result": "significant inhibitory effects"}, {"measurement": "GFAP protein expression (immunofluorescence)", "setting": "[3]; R28, 75 μM YC-1, hypoxia", "result": "significant inhibitory effects"}, {"measurement": "GFAP staining remaining in cytoplasm (immunofluorescence)", "setting": "[3]; R28, 100 μM YC-1, hypoxia", "result": "few stained regions"}, {"measurement": "GFAP protein levels (quantified staining intensity, FIG. 11C)", "setting": "[3]; R28, hypoxia, dose-dependent fashion", "result": "significantly reduced"}, {"measurement": "expression of iNOS", "setting": "[4]", "result": "potent activity at abrogating the expression of iNOS"}]}
